# Laboratory results taken from ChEMBL document CHEMBL1201862, “PubChem BioAssay data set” (2004).
# The source made the active and inactive calls.
# Tests used:
# [1] = viability of PTEN-deleted HCT116 cells – cell-based, HCT116 PTEN knockout, dose response (AID 1047); format: functional;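 note: HCT116 colon tumor cells with PTEN knocked out; cells exposed to compound for 60 hours before readout; potency for loss of cell viability measured by luminescence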
# [2] = viability of HCT116 lacking mutant beta-catenin – cell-based, human colon tumor, dose response (AID 1045); format: functional;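 note: HCT116 colon tumor cells with beta catenin knocked out; cells exposed to compound for 60 hours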
# [3] = molecular target: T1, Heat shock factor protein 1 (Mus musculus, UniProt P38532); test: decrease of HSF1-responsive luciferase luminescence – cell-based, NIH3T3, dose retest, confirmation (AID 2382); format: functional;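 note: NIH3T3 fibroblasts with HSF1-driven luciferase reporter stressed by proteasome inhibitor MG132; luminescence from HSF1-driven luciferase expression after 8 hours of MG132 stress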
# T1 sequence (P38532 whole entry): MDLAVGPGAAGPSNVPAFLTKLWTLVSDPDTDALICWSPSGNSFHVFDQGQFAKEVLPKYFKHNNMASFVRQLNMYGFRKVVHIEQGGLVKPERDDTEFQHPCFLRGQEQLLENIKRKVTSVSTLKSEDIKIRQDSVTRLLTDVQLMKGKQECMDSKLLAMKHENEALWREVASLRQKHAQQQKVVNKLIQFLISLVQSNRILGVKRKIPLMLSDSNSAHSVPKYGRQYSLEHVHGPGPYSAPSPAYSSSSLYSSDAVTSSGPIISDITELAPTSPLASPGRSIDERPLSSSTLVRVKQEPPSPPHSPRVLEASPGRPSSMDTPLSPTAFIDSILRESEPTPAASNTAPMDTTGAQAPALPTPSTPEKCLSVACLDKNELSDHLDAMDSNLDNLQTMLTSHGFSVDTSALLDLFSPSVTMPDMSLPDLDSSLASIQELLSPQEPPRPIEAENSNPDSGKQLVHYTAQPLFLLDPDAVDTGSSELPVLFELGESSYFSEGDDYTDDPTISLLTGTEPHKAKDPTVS
# Cytochrome P450 2C9 = Cytochrome P450 2C9 (Homo sapiens, UniProt P11712)
# BJ [4] = test: BJ-TERT fibroblast viability loss – cell-based, RAS-independent, luminescence, dose response (AID 1933); format: functional; conditions: Homo sapiens
# [5] = DRD fibroblast viability loss – cell-based, non-viral oncogenic, luminescence, dose response (AID 1934); format: functional; conditions: Homo sapiens
# BJ [6] = test: BJ-TERT-LT-ST fibroblast viability loss – cell-based, RAS-independent, luminescence, dose response (AID 1935); format: functional; conditions: Homo sapiens;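 note: BJ fibroblasts immortalized with TERT plus LT and ST oncogenes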
# BJ [7] = test: cells; format: functional, cell-based; conditions: Homo sapiens
# Leucine aminopeptidase = molecular target: T2, Leucine aminopeptidase (Plasmodium falciparum 3D7, UniProt Q8IL11); test: P. falciparum M17LAP inhibitors, primary screen, biochemical, fluorogenic H-Leu-NHMec substrate, 1536-well (AID 1619); format: functional
# T2 sequence (Q8IL11 whole entry): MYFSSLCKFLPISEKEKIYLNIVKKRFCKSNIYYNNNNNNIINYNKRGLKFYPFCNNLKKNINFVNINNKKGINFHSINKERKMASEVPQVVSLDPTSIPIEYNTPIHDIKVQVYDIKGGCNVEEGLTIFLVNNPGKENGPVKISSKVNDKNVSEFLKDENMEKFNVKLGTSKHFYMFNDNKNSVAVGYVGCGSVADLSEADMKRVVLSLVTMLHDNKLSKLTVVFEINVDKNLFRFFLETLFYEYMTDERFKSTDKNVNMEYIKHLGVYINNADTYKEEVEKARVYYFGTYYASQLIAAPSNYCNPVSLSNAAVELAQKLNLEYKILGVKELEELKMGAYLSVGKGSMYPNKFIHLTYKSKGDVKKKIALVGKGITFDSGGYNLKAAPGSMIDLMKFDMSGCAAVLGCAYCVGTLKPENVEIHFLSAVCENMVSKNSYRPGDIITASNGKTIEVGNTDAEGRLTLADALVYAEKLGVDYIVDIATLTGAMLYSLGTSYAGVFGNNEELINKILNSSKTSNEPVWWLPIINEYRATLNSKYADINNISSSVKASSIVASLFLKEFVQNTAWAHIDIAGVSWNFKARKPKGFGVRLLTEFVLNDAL
# Paired box protein Pax-8 = Paired box protein Pax-8 (Homo sapiens, UniProt Q06710); test: PAX8 transcriptional activity inhibition in RMG-I – RMG-I cells, luciferase, cherry-pick, dose response (AID 687027); format: functional, cell-based;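 note: luciferase reporter driven by Pax8 target thyroperoxidase promoter measured by SteadyGlo luminescence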
# [8] = Luminescence Cell-Based Dose Retest to Confirm Inhibitors of Cancer Stem Cells. [Related pubchem assays (depositor defined):AID2717, AID2721]; format: functional; conditions: Homo sapiens
# [9] = molecular target: T3, Rac GTPase-activating protein 1 (Homo sapiens, UniProt Q9H0H5); test: blockers of MgcRacGAP-driven Rac1 GTP hydrolysis – biochemical, ADP Hunter fluorescence, primary and confirmatory, confirmation (AID 624330); format: functional
# T3 sequence (Q9H0H5 whole entry): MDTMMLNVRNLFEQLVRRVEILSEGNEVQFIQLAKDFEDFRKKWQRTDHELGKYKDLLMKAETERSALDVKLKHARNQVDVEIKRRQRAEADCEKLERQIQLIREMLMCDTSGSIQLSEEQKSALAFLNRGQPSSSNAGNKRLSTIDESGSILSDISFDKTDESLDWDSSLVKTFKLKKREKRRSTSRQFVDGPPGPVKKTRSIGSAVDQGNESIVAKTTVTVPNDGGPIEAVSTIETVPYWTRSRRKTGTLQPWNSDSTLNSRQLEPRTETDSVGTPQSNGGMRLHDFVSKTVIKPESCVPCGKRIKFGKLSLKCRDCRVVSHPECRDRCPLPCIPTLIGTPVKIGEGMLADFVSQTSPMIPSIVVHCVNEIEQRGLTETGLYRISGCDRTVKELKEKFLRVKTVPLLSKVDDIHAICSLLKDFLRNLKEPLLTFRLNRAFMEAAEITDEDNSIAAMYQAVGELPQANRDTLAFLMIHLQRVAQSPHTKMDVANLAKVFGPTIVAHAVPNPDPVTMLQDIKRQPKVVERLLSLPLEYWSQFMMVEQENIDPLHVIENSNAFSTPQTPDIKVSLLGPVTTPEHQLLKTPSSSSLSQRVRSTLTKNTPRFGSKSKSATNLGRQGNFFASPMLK
# [10] = molecular target: FAD-linked sulfhydryl oxidase ALR (Homo sapiens, UniProt P55789); test: ALR-catalysed DTT oxidation blockers – biochemical, H2O2 detection, luminescence, cherry-pick, dose response (AID 493248)
# Streptococcus = test: GAS UMAA2166 growth inhibition – luminescence, BacTiterGlo, counter-screen for streptokinase expression inhibitor project, dose response (AID 1915); format: functional, organism-based;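 note: potency for reduction of bacterial viability or growth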
# [11] = system: Streptococcus sp. 'group A'; test: Streptococcus pyogenes SK(-)GAS viability under kanamycin – luminescence, BacTiterGlo, confirmation, counter-screen for streptokinase expression inhibitor project, dose response (AID 1900); format: functional, organism-based
# Streptokinase A = molecular target: T4, Streptokinase A (Streptococcus pyogenes serotype M1, UniProt P10520); test: viability-normalized secreted streptokinase activity reduction – plasminogen activation absorbance, OD405, dose response (AID 1914); format: functional, Streptococcus pyogenes M1 GAS;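 note: secreted streptokinase activity via plasminogen activation per viability signal from cell pellet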
# T4 sequence (P10520 whole entry): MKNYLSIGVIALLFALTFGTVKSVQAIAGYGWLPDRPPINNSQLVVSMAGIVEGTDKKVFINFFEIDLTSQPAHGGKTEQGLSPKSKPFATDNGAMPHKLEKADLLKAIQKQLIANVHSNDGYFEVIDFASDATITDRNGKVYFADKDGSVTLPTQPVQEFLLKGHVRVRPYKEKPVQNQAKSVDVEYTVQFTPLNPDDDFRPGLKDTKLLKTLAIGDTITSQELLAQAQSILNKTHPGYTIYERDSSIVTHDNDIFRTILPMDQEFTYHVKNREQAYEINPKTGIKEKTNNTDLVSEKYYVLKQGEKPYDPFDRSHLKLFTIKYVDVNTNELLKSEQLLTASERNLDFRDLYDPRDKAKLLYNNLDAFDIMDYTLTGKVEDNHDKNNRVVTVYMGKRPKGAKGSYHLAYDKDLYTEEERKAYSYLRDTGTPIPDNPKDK
# Chain of Paired box protein Pax-8 (Q06710 whole entry): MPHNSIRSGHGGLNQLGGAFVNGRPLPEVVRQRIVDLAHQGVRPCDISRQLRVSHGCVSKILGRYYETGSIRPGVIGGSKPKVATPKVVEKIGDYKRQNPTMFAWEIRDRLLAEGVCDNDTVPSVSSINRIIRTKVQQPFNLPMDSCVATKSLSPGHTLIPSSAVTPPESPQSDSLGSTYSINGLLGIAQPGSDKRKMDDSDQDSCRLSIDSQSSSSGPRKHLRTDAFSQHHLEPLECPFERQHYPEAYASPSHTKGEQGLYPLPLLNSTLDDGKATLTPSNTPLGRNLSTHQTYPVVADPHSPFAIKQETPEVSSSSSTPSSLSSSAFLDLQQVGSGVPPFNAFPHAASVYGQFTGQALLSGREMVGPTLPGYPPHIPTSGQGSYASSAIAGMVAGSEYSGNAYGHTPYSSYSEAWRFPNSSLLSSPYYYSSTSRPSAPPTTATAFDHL
# Chain of FAD-linked sulfhydryl oxidase ALR (P55789 whole entry): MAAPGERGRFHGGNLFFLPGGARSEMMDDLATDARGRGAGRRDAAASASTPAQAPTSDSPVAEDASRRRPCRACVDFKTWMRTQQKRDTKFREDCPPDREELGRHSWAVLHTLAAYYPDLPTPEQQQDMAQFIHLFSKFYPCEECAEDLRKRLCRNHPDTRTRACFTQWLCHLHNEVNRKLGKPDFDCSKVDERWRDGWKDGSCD
# Chain of Cytochrome P450 2C9 (P11712 whole entry): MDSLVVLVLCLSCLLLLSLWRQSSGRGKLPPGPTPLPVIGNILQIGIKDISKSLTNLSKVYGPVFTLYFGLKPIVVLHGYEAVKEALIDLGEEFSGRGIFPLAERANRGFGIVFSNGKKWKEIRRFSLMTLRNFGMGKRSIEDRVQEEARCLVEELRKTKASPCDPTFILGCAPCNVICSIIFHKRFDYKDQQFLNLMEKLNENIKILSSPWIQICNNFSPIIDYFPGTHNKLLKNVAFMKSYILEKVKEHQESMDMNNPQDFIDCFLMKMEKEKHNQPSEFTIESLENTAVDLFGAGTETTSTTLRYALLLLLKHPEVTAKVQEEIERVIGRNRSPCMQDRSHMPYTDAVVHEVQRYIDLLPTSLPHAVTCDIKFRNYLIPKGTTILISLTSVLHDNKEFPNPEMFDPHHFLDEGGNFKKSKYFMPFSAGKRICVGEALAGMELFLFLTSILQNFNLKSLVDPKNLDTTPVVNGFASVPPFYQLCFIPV
smiles,measurement,setting,value
S=C(Nc1ccccn1)c1ccccn1,EC50,[1],5.48 µM (active)
same,EC50,[2],5.37 µM (active)
CC(C)CCNC(=O)CN(C(=O)CCC(=O)Nc1nccs1)c1ccc2c(c1)OCCO2,EC50,[3],5.9 µM (active)
CN1CCN(c2nc(-c3ccc(C(C)(C)C)cc3)nc3ccccc23)CC1,EC50,[3],0.328 µM (active)
CC(=O)Nc1nn(C)c2nc(C)cc(C)c12,EC50,[3],> 195 µM (not active)
COc1ccc(NC(C)=O)cc1NC(=O)CN1CCN(CC(=O)Nc2ccccc2Cl)CC1,AC50,Cytochrome P450 2C9,20 µM (inconclusive)
same,EC50,[3],> 195 µM (not active)
CC1CC(=O)Nc2cc([N+](=O)[O-])ccc2N1 (centres undefined),EC50,[3],> 195 µM (not active)
COc1ccc(C(C)N2CC34C=CC(O3)C(C(=O)O)C4C2=O)cc1 (centres undefined),EC50,[3],> 195 µM (not active)
Cc1cnc(C(=O)Nc2ccccc2-n2cccc2)cn1,EC50,[3],> 195 µM (not active)
CCn1c2ccccc2c2cc(NC(=O)CNCc3ccccc3OC)ccc21,EC50,BJ [4],7.54 µM (inconclusive)
same,EC50,[5],4.21 µM (active)
same,EC50,BJ [6],41.6 µM (inconclusive)
same,EC50,BJ [7],> 150 µM (inconclusive)
N#C/C(=C/c1cccc(C(F)(F)F)c1)c1nc(CCN2C(=O)c3ccccc3C2=O)cs1,EC50,[3],> 195 µM (not active)
Cc1cccc(C)c1Nc1nnc(SC(C)C(=O)Nc2c(C)n(C)n(-c3ccccc3)c2=O)s1 (centres undefined),IC50,Leucine aminopeptidase,13.5 µM (active)
COc1ccc(-c2cc(-c3ccccc3)c(C#N)c(S(C)(=O)=O)n2)cc1,EC50,[1],7.91 µM (active)
same,AC50,Paired box protein Pax-8,6.98 µM (active)
same,EC50,[2],5.07 µM (active)
CCOc1cc(CNCCO)cc(Br)c1OCc1ccc(Cl)cc1Cl,EC50,[1],4.89 µM (active)
same,EC50,[2],4.69 µM (active)
same,AC50,[8],6.75 µM (active)
C=CCn1c(=S)[nH]c2sc3c(c2c1=O)CCC3,IC50,Leucine aminopeptidase,46.2 µM (active)
O=C(O)c1cccc(CN2C(=O)SC(Nc3ccccc3)C2=O)c1 (centres undefined),IC50,Leucine aminopeptidase,34.3 µM (active)
NS(=O)(=O)c1ccc(CN=C(S)NC2CCCCC2)cc1,EC50,[3],> 195 µM (not active)
CCN1CCN(CC(c2ccccc2)c2ccccc2)CC1,IC50,[9],197 µM (active)
Cc1cccc(NC(=O)Cn2cnc3c(cnn3-c3ccc(F)cc3)c2=O)c1C,EC50,[1],6.93 µM (active)
same,EC50,[2],14.2 µM (active)
c1ccc(-c2nnc(Sc3ncnc4c3cnn4-c3ccccc3)[nH]2)cc1,IC50,Leucine aminopeptidase,64.8 µM (active)
Nc1ccc(O)c([N+](=O)[O-])c1,IC50,[9],42.8 µM (active)
CC1SCC(=O)N(CC(=O)Nc2ccc3c(c2)OCO3)C1=O (centres undefined),IC50,Leucine aminopeptidase,29.4 µM (active)
CCCN1Cc2cccc(C(=O)N3CCN(c4ccc(OC)cc4)CC3)c2C1=O,EC50,[3],> 195 µM (not active)
CCOC(=O)c1sc(NC(=O)c2cc(-c3ccc(C)cc3)nc3ccccc23)c(C#N)c1C,EC50,[1],9.45 µM (active)
same,EC50,[2],10.5 µM (active)
O=C(CSc1ncccc1C(=O)O)NCCC1=CCCCC1,IC50,Leucine aminopeptidase,29.2 µM (active)
Nc1nnc(Nc2ccc(Cl)cc2)[nH]1,AC50,[10],4.22 µM (active)
same,IC50,Leucine aminopeptidase,6.6 µM (active)
Cc1cccc(CN2CCN(Cc3ccco3)CC2)c1,IC50,[9],87.2 µM (active)
Cc1ccc(S(=O)(=O)N2CCN(CCNC(=O)C(=O)NCc3ccccc3)CC2)cc1,EC50,[3],> 195 µM (not active)
c1ccc(-c2nc3ccccc3c3nncn23)cc1,EC50,[3],> 195 µM (not active)
Nc1ccn([C@@H]2O[C@H](CNCC3=CCOc4ccc(O)cc43)[C@@H](O)[C@H]2O)c(=O)n1,IC50,[9],92.4 µM (active)
O=C(N/N=C/c1ccsc1)c1cc(-c2cccs2)nc2ccccc12,AC50,Paired box protein Pax-8,51.8 µM (active)
CCOc1cc(/C=N/NC(=O)c2ccccc2-n2cccc2)ccc1O,IC50,[9],46.2 µM (active)
N#C[C@H]1[C@H](c2ccc(C#CC3CCCCC3)cc2)[C@H](CO)N1C(=O)Nc1ccc(F)cc1,AC50,Paired box protein Pax-8,20.8 µM (active)
C[C@@H]1CCCCO[C@@H](CN(C)Cc2ccc(C(F)(F)F)cc2)[C@@H](C)CN([C@@H](C)CO)C(=O)c2cc(NS(=O)(=O)c3ccc(F)cc3)ccc2O1,AC50,Paired box protein Pax-8,8.7 µM (active)
Cc1ccc(S(=O)(=O)N[C@@H]2C=C[C@@H](CC(=O)N3CCC(Cc4ccccc4)CC3)O[C@@H]2CO)cc1,AC50,Paired box protein Pax-8,13.3 µM (active)
Cc1ccc(S(=O)(=O)Nc2ccc3c(c2)C(=O)N([C@@H](C)CO)C[C@@H](C)[C@H](CN(C)S(=O)(=O)c2ccc(Cl)cc2)OCCCC[C@@H](C)O3)cc1,AC50,Paired box protein Pax-8,4.47 µM (active)
C/C(N)=C(/C#N)C(=O)COC(=O)c1cc(-c2ccc(Br)cc2)nc2ccccc12,EC50,[1],25 µM (active)
same,EC50,Streptococcus,18.7 µM (active)
same,EC50,[11],11.9 µM (active)
same,EC50,Streptokinase A,4.43 µM (active)
same,EC50,[2],24.9 µM (active)
COc1ccc(/C=N/NC(=O)c2cccc(S(=O)(=O)N3CCCC3)c2)cc1O,IC50,[9],57.5 µM (active)
COc1ccc(/C=N/NC(=O)c2ccc(CSc3nc(C)cc(C)n3)cc2)cc1O,IC50,[9],114 µM (active)
